Values quoted from earlier work as cited in article PMC10747602, “Dose Response, Dosimetric, and Metabolic Evaluations of Replacement PFAS Perfluoro-(2,5,8-trimethyl-3,6,9-trioxadodecanoic) Acid (HFPO-TeA)” (Toxics, 2023).

Test system: rats
Design: method as in PMID 28962433, PMID 30920876
Conditions: exposures up to 500 mg/kg/day; cited from earlier work

For `O=C(O)C(F)(OC(F)(F)C(F)(F)C(F)(F)F)C(F)(F)F` (stereo not shown) [HFPO-DA, perfluoro-2-methyl-3-oxahexanoic acid], the premature mortality is given as “no reported premature mortality”.
